Measured values: patent US6533767B2, “Methods for enhancing fluid flow through an obstructed vascular site, and systems and kits for use in practicing the same” (Corazon Technologies, Inc., priority 2000, dated 2003)

Experiments:
[1] = In vitro thrombus removal in cadaveric femoral arteries; conditions: 1% solution, approximately 60 cc per treatment over a 10 minute interval
Description: Fresh cadaveric femoral arteries which contained soft clots partially occluding the. vessel lumen were used. […] Vessels were treated with a 1% surfactant solution of sodium dodecyl sulfate (SDS, Sigma chemicals), prepared immediately prior to use. Treatment consisted of injection of surfactant through a 35 cc male luer syringe and flow characteristics recorded.

[2] = In vitro cholesterol dissolution; type: physicochemical; conditions: for effectiveness in solvating / dissolving crystalline cholesterol: 0.1 grams cholesterol in 50 mLs 1% surfactant solution; for cholesterol crystal presence or absence and crystal morphology (light microscopy): 0.1 grams cholesterol in 50 mLs surfactant solution, agitation up to 1 hour, 200x magnification, time as in value
Description: Dissolution of cholesterol was examined in different solutions of bile salts, non-ionic, and ionic surfactants. Solutions of bile salts were prepared as follows: 0.5% solutions of cholic, dehydrocholic, deoxycholic, lithocholic acids were made by dissolving 0.5 grams of the free acid powders in 100 mL H2O previously adjusted to pH=12 with sodium hydroxide. Solutions were then adjusted to pH=7.5 with HCl. 1% surfactant solutions were made by dilution of concentrated stock solutions: Benzalkonium chloride, nonoxynol-9, sodium dodecyl sulfate, were prepared immediately prior to use. Dissolution studies were performed by adding 0.1 grams cholesterol powdered crystals to 50 mLs of the above surfactants with agitation on a rocker table for 1 hour. Solutions were then examined under light microscopy 200× magnification and cholesterol crystal presence or absence and crystal morphology recorded for each solution.

[3] = Solution containing surfactant and acid components, effect on cholesterol crystals; type: physicochemical; conditions: SDS 1%; combination with 0.1N HCl pH 1.0, isotonic (300 mOsmol)
Description: A solution of sodium dodecyl sulfate (SDS) (a.k.a. sodium lauryl sulfate) (1%) and 0.1N hydrochloric acid (pH 1.0) made isotonic (300 mOsmol) with sodium chloride was prepared and compared with a solution of sodium dodecyl sulfate solution (1%). […] This combination solution can be buffered with sodium bicarbonate (NaHCO3) in the same manner that the hydrochloric acid solution is buffered with NaHCO3, as described in the specification supra.

crystal dissolution ([2]; by 1 hour)	Compound	flow through vessel after treatment [1]	removal of soft thrombus [1]	effectiveness in solvating / dissolving crystalline cholesterol [2]	cholesterol crystal presence or absence and crystal morphology (light microscopy) [2]	micelle formation around cholesterol crystals [3]
–	CCCCCCCCCCCCOS(=O)(=O)[O-].[Na+] [Sodium dodecyl sulfate, sodium dodecyl sulfate]	Flow was reestablished in all samples	effective in removing soft thrombus from occluded femoral arteries	most effective in solvating	no free crystals were observed 5 minutes after cholesterol addition	formed micelles around cholesterol crystals making the cholesterol crystals water soluble
approximately 50%	Benzalkonium chloride	–	–	appeared to dissolve most of the crystalline cholesterol	still crystals apparent after 10 minutes	–
–	nonoxynol-9	–	–	–	little or no observable effect on the crystal structure	–
